In US5631394A, “Pharmaceutically active ceramide-related compounds” (The Liposome Company, Inc., priority 1995, dated 1997):
Counter-ions that a name gives are not always drawn. Like-named read-outs stand apart in the source and are kept apart here.

Columns and labels:
Assay type in all cases: cell-based
A549 cells [1] = assay: sulforhodamine B cytotoxicity assay, 72 hour drug exposure, A549
MCF7 cells = assay: sulforhodamine B cytotoxicity assay, 72 hour drug exposure, MCF7
MCF7/ADR cells = assay: sulforhodamine B cytotoxicity assay, 72 hour drug exposure, MCF7/ADR
LEWIS LUNG cells = assay: sulforhodamine B cytotoxicity assay, 72 hour drug exposure, Lewis lung
OVCAR 3 cells = assay: sulforhodamine B cytotoxicity assay, 72 hour drug exposure, OVCAR 3
HT 29 cells = assay: sulforhodamine B cytotoxicity assay, 72 hour drug exposure, HT 29
RPMI-7666 cells [2] = assay: % survival, trypan blue exclusion assay, without serum, RPMI-7666; settings: bioactive lipid dose = 20 uM, 2880 min
U-937 cells [3] = assay: % survival, trypan blue exclusion assay, without serum, U-937; settings: bioactive lipid dose = 20 uM, 2880 min
P-388 cells [4] = assay: % survival, trypan blue exclusion assay, without serum, P-388; settings: bioactive lipid dose = 20 uM, 2880 min
RPMI-7666 cells [5] = assay: % survival, trypan blue assay, with serum, RPMI-7666; settings: bioactive lipid dose = 20 uM
U-937 cells [6] = assay: % survival, trypan blue assay, with serum, U-937; settings: bioactive lipid dose = 20 uM
P-388 cells [7] = assay: % survival, trypan blue assay, with serum, P-388; settings: bioactive lipid dose = 20 uM
RPMI 7666 cells = assay: sulforhodamine B cytotoxicity assay, 72 hour drug exposure, RPMI 7666
Procedure: (§1) These studies were performed using a sulforrhodamine B assay (see Monks et al., J. Natl. Cancer Inst. (U.S.) 83:757 ([…])). Compounds were dissolved in ethanol. Results from these studies, presented in the following tables, are expressed as Gl50 values, that is, concentration of a drug (micromolar) required to inhibit growth of fifty percent of the cells.

U937 cells = assay: sulforhodamine B cytotoxicity assay, 72 hour drug exposure, U937; settings: Homo sapiens, U-937
Procedure: as §1

C3H10T1/2 cells = assay: sulforhodamine B cytotoxicity assay, 72 hour drug exposure, C3H10T1/2; settings: Mus musculus, C3H 10T1/2
Procedure: as §1

CAKI 1 cells = assay: sulforhodamine B cytotoxicity assay, 72 hour drug exposure, CAKI 1
SKMEL 28 cells = assay: sulforhodamine B cytotoxicity assay, 72 hour drug exposure, SKMEL 28
P388 cells = assay: sulforhodamine B cytotoxicity assay, 72 hour drug exposure, P388; settings: Mus musculus
Procedure: as §1

P388/ADR cells = assay: sulforhodamine B cytotoxicity assay, 72 hour drug exposure, P388/ADR; settings: Mus musculus
Procedure: as §1

A549 cells [8] = assay: in vitro sensitivity at different drug exposure times, A549; settings: Homo sapiens
Procedure: as §1

MCF 7/ADR cells = assay: in vitro sensitivity at different drug exposure times, MCF 7/ADR; settings: Homo sapiens, NCI/ADR-RES
Procedure: as §1

[9] = Homo sapiens, NCI/ADR-RES, 72 h

What does the source list for `CCCCCCCCCCCCC/C=C/C(=O)[C@H](COC(C)=O)NC(=O)CCCCC` [1-Acetate-3-one C6-Cer, 1-acetate-3-one C6-Cer]?
GI50 (A549 cells [1]; Homo sapiens, A549, 72 h): 14.4 ± 0.1 µM; GI50 (MCF7 cells; Homo sapiens, MCF7, 72 h): 6.7 ± 0.1 µM; GI50 (MCF7/ADR cells; [9]): 14.7 ± 0.1 µM; GI50 (LEWIS LUNG cells; Lewis lung carcinoma, 72 h): 14.5 ± 0.1 µM; GI50 (OVCAR 3 cells; Homo sapiens, OVCAR-3, 72 h): 15.3 ± 0.1 µM; GI50 (HT 29 cells; Homo sapiens, HT-29, 72 h): 13.9 ± 0.2 µM

Which results are given for `CCCCCCCCCCCCC/C=C/[C@@H](O)[C@H](CO)NC(=O)CCCCC` [C6-Ceramide, C6-ceramide, reference compound]?
% Survival (by trypan blue exclusion assay) (RPMI-7666 cells [2]): 79%; % Survival (by trypan blue exclusion assay) (U-937 cells [3]): 82.6%; % Survival (by trypan blue exclusion assay) (P-388 cells [4]): 55.4%; % Survival (by trypan blue assay) (RPMI-7666 cells [5]): 89.2%; % Survival (by trypan blue assay) (U-937 cells [6]): 97%; % Survival (by trypan blue assay) (P-388 cells [7]): 84.5%; GI50 (A549 cells [1]; Homo sapiens, A549, 72 h): 12 ± 4.8 µM; GI50 (A549 cells [1]; listed as Cer-C6): 8.08 ± 0.06 µM; GI50 (MCF7 cells; Homo sapiens, MCF7, 72 h): 24.2 ± 8.5 µM; GI50 (MCF7 cells; listed as Cer-C6): 12.7 ± 0.14 µM; GI50 (MCF7/ADR cells): 36 ± 0.88 µM; GI50 (MCF7/ADR cells; [9]): 36 ± 0.88 µM; GI50 (MCF7/ADR cells; listed as Cer-C6): 26.1 ± 0.85 µM; GI50 (RPMI 7666 cells): 8.5 ± 3.5 µM; GI50 (U937 cells): 7 ± 1.7 µM; GI50 (LEWIS LUNG cells; Lewis lung carcinoma, 72 h): 9.6 ± 4.4 µM; GI50 (LEWIS LUNG cells; listed as Cer-C6): 5.81 µM; GI50 (C3H10T1/2 cells): 14 ± 2.5 µM; GI50 (CAKI 1 cells; Homo sapiens, CAKI-1, 72 h): 6.04 ± 0.23 µM; GI50 (CAKI 1 cells; listed as Cer-C6): 5.88 ± 0.1 µM; GI50 (OVCAR 3 cells; Homo sapiens, OVCAR-3, 72 h): 15.2 ± 1.77 µM; GI50 (HT 29 cells; Homo sapiens, HT-29, 72 h): 4 ± 0.2 µM; GI50 (HT 29 cells; listed as Cer-C6): 4.67 ± 0.19 µM; GI50 (SKMEL 28 cells; Homo sapiens, SK-MEL-28, 72 h): 13.3 ± 2.51 µM; GI50 (SKMEL 28 cells; listed as Cer-C6): 11.55 ± 0.07 µM; GI50 (P388 cells): 6.24 ± 0.3 µM; GI50 (P388/ADR cells): 12.7 ± 1.7 µM

With `CCCCCCCCCCCCC/C=C/[C@@H](O)[C@H](CO)NCCCCCCCC` [N-C8 Sphingosine HCl Salt] as the compound, how does the GI50 (A549 cells [1]; HCl Salt) read?
Its GI50 is 4.97 ± 0.19 µM.

And the GI50 (MCF7 cells; HCl Salt)?
Its GI50 is 4.9 ± 0.02 µM.

And the GI50 (MCF7/ADR cells; HCl Salt)?
Its GI50 is 4.82 ± 0.18 µM.

And the GI50 (LEWIS LUNG cells; HCl Salt)?
Its GI50 is 4.82 ± 0.18 µM.

What about the GI50 (CAKI 1 cells; HCl Salt) of the same compound?
Its GI50 is 4.47 ± 0.01 µM.

And the GI50 (OVCAR 3 cells; HCl Salt)?
Its GI50 is 5.23 ± 0.01 µM.

And the GI50 (HT 29 cells; HCl Salt)?
The GI50 was 5.78 µM.

What about the GI50 (SKMEL 28 cells; HCl Salt) of the same compound?
Its GI50 is 4.95 ± 0.02 µM.

What does the source list for `CCCCCCCCCCCCC/C=C/[C@@H](O)[C@H](CO)NCCCC` [N-C4 Sphingosine, N-C4 sphingosine]?
GI50 (A549 cells [1]; Homo sapiens, A549, 72 h): 4.9 ± 0.1 µM; GI50 (MCF7 cells; Homo sapiens, MCF7, 72 h): 4.88 ± 0.03 µM; GI50 (MCF7/ADR cells; [9]): 9.6 ± 0.47 µM; GI50 (LEWIS LUNG cells; Lewis lung carcinoma, 72 h): 5.08 ± 0.13 µM; GI50 (CAKI 1 cells; Homo sapiens, CAKI-1, 72 h): 6.88 ± 0.52 µM; GI50 (OVCAR 3 cells; Homo sapiens, OVCAR-3, 72 h): 14.1 ± 0.35 µM; GI50 (HT 29 cells; Homo sapiens, HT-29, 72 h): 6.49 ± 0.11 µM; GI50 (SKMEL 28 cells; Homo sapiens, SK-MEL-28, 72 h): 6.13 ± 1.03 µM

Which GI50 (A549 cells [1]; Homo sapiens) does the source give for `CCCCCCCCCCCCC/C=C/[C@@H](O)[C@@H](N)CO` [Sphingosine, reference compound] here?
Its GI50 is 20.2 ± 0.8 µM.

What about the GI50 (MCF7 cells; Homo sapiens) of the same compound?
The GI50 was 20.4 ± 0.4 µM.

What about the GI50 (MCF7/ADR cells; Homo sapiens, NCI/ADR-RES) of the same compound?
Its GI50 is 19.8 µM.

And the GI50 (LEWIS LUNG cells; Lewis lung carcinoma)?
The GI50 was 12.2 ± 0.1 µM.

What about the GI50 (CAKI 1 cells; Homo sapiens) of the same compound?
The GI50 was 39.7 ± 0.8 µM.

What about the GI50 (OVCAR 3 cells; Homo sapiens) of the same compound?
The GI50 was 44.6 ± 0.9 µM.

And the GI50 (HT 29 cells; Homo sapiens)?
The GI50 was 19.3 ± 0.1 µM.

What about the GI50 (SKMEL 28 cells; Homo sapiens, SK-MEL-28) of the same compound?
The GI50 was 15.6 ± 1 µM.

With `CCCCCCCCCCCCC/C=C/[C@@H](O)[C@H](COC(=O)CCC)NC(=O)CCCCC` [1-Butyrate C6-Ceramide, 1-butyrate, C6-ceramide] as the compound, how does the GI50 (A549 cells [1]; Homo sapiens, A549, 72 h) read?
The GI50 was 6.2 ± 0.4 µM.

And the GI50 (MCF7 cells; Homo sapiens, MCF7, 72 h)?
Its GI50 is 17.9 ± 10 µM.

What about the GI50 (MCF7/ADR cells; [9]) of the same compound?
The GI50 was 37.8 ± 8.06 µM.

And the GI50 (LEWIS LUNG cells; Lewis lung carcinoma, 72 h)?
The GI50 was 6.4 ± 2.4 µM.

And the GI50 (A549 cells [8]; 1 hour pulse)?
Its GI50 is > 100 µM.

What about the GI50 (A549 cells [8]; 4 hour pulse) of the same compound?
The GI50 was 52.9 ± 2.5 µM.

And the GI50 (A549 cells [8]; 8 hour pulse)?
Its GI50 is 36.5 ± 0.8 µM.

What about the GI50 (A549 cells [8]; 24 hour pulse) of the same compound?
The GI50 was 8.6 ± 0.6 µM.

And the GI50 (A549 cells [8]; 48 hour pulse)?
The GI50 was 4.7 ± 0.1 µM.

What about the GI50 (A549 cells [8]; 72 hour continuous exposure) of the same compound?
Its GI50 is 5.5 ± 0.2 µM.

What about the GI50 (MCF 7/ADR cells; 1 hour pulse) of the same compound?
The GI50 was > 100 µM.

What about the GI50 (MCF 7/ADR cells; 4 hour pulse) of the same compound?
The GI50 was 79.1 ± 5.3 µM.

And the GI50 (MCF 7/ADR cells; 8 hour pulse)?
The GI50 was 44 ± 1.1 µM.

And the GI50 (MCF 7/ADR cells; 24 hour pulse)?
The GI50 was 20.8 ± 1.8 µM.

And the GI50 (MCF 7/ADR cells; 48 hour pulse)?
The GI50 was 17.2 ± 0.1 µM.

And the GI50 (MCF 7/ADR cells; 72 hour continuous exposure)?
Its GI50 is 18.5 ± 0.4 µM.

For `CCCCCCCCCCCCC/C=C/[C@@H](OC(C)=O)[C@H](COC(C)=O)NC(=O)CCCCC` [1,3-Diacetate C6-Ceramide], which GI50 (A549 cells [1]; Homo sapiens, A549, 72 h) is on record?
Its GI50 is 6.1 ± 1.1 µM.

And the GI50 (MCF7 cells; Homo sapiens, MCF7, 72 h)?
The GI50 was 15.5 ± 0.2 µM.

And the GI50 (MCF7/ADR cells; [9])?
Its GI50 is 42.9 ± 3.6 µM.

And the GI50 (LEWIS LUNG cells; Lewis lung carcinoma, 72 h)?
The GI50 was 4.9 ± 0.5 µM.

Which results are given for `CCCCCCCCCCCCC/C=C/[C@@H](O)[C@H](CO[Si](C)(C)C(C)(C)C)NC(=O)CCCCC` [1-TBDMS C6-Ceramide, 1-TBDMS C6-Cer]?
GI50 (A549 cells [1]; Homo sapiens): > 200 µM; GI50 (RPMI 7666 cells): > 200 µM; GI50 (U937 cells): > 200 µM; GI50 (LEWIS LUNG cells; Lewis lung carcinoma): > 200 µM; GI50 (C3H10T1/2 cells): > 161 µM
